Laboratory results published in PubChem BioAssay (NCI).
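Cultured in 96-well plates, cells were exposed to test compound for 48 hours across five concentrations. The concentration for full growth arrest is given as TGI.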

Assays:
Experiment in all cases: NCI-60 cell line screen, 48 h
DU-145 prostate = tested on: DU-145 prostate
SF-539 CNS = tested on: SF-539 CNS
SNB-19 CNS = tested on: SNB-19 CNS
MCF7 breast = tested on: MCF7 breast
HOP-62 NSCLC = tested on: HOP-62 NSCLC
IGROV1 ovarian = tested on: IGROV1 ovarian
OVCAR-8 ovarian = tested on: OVCAR-8 ovarian
MDA-N = tested on: MDA-N
SF-268 CNS = tested on: SF-268 CNS
SK-MEL-5 melanoma = tested on: SK-MEL-5 melanoma
MOLT-4 leukemia = tested on: MOLT-4 leukemia
HCC-2998 colon = tested on: HCC-2998 colon
CAKI-1 renal = tested on: CAKI-1 renal
HCT-116 colon = tested on: HCT-116 colon
CCRF-CEM leukemia = tested on: CCRF-CEM leukemia
SW-620 colon = tested on: SW-620 colon
PC-3 prostate = tested on: PC-3 prostate
NCI-H460 lung = tested on: NCI-H460 lung
SK-MEL-2 melanoma = tested on: SK-MEL-2 melanoma
U251 CNS = tested on: U251 CNS
MALME-3M melanoma = tested on: MALME-3M melanoma
NCI-H522 lung = tested on: NCI-H522 lung
OVCAR-4 ovarian = tested on: OVCAR-4 ovarian
M14 melanoma = tested on: M14 melanoma
UACC-62 melanoma = tested on: UACC-62 melanoma
SF-295 CNS = tested on: SF-295 CNS
A498 renal = tested on: A498 renal
UO-31 renal = tested on: UO-31 renal
ACHN renal = tested on: ACHN renal
K-562 leukemia = tested on: K-562 leukemia
MDA-MB-435 = tested on: MDA-MB-435
EKVX NSCLC = tested on: EKVX NSCLC
SK-MEL-28 melanoma = tested on: SK-MEL-28 melanoma
LOX IMVI melanoma = tested on: LOX IMVI melanoma
TK-10 renal = tested on: TK-10 renal
SNB-75 CNS = tested on: SNB-75 CNS
NCI-H226 lung = tested on: NCI-H226 lung
RXF 393 renal = tested on: RXF 393 renal
KM12 colon = tested on: KM12 colon
NCI-H23 lung = tested on: NCI-H23 lung
OVCAR-5 ovarian = tested on: OVCAR-5 ovarian
OVCAR-3 ovarian = tested on: OVCAR-3 ovarian
HT29 colon = tested on: HT29 colon
HCT-15 colon = tested on: HCT-15 colon
SN12C renal = tested on: SN12C renal
HL-60(TB) leukemia = tested on: HL-60(TB) leukemia
A549 NSCLC = tested on: A549 NSCLC
HS 578T breast = tested on: HS 578T breast
MDA-MB-231 breast = tested on: MDA-MB-231 breast
RPMI-8226 leukemia = tested on: RPMI-8226 leukemia
NCI/ADR-RES ovarian = tested on: NCI/ADR-RES ovarian
786-0 renal = tested on: 786-0 renal
T-47D breast = tested on: T-47D breast
COLO 205 colon = tested on: COLO 205 colon
SK-OV-3 ovarian = tested on: SK-OV-3 ovarian
BT-549 breast = tested on: BT-549 breast
UACC-257 melanoma = tested on: UACC-257 melanoma
SR leukemia = tested on: SR leukemia
HOP-92 NSCLC = tested on: HOP-92 NSCLC

Measured: TGI

CCC(=O)C1(N2CCOCC2)CCN(CCCC(=O)c2ccc(F)cc2)CC1
> 100 µM: DU-145 prostate | SF-539 CNS | SNB-19 CNS | MCF7 breast | HOP-62 NSCLC | IGROV1 ovarian | OVCAR-8 ovarian | MDA-N | SF-268 CNS | SK-MEL-5 melanoma | MOLT-4 leukemia | HCC-2998 colon | CAKI-1 renal | HCT-116 colon | CCRF-CEM leukemia | SW-620 colon | PC-3 prostate | NCI-H460 lung | SK-MEL-2 melanoma | U251 CNS | MALME-3M melanoma | NCI-H522 lung | OVCAR-4 ovarian | M14 melanoma | UACC-62 melanoma | SF-295 CNS | A498 renal | UO-31 renal | ACHN renal | K-562 leukemia | MDA-MB-435 | EKVX NSCLC | SK-MEL-28 melanoma | LOX IMVI melanoma | TK-10 renal | SNB-75 CNS | NCI-H226 lung | RXF 393 renal | KM12 colon | NCI-H23 lung | OVCAR-5 ovarian | OVCAR-3 ovarian | HT29 colon | HCT-15 colon | SN12C renal | HL-60(TB) leukemia | A549 NSCLC | HS 578T breast | MDA-MB-231 breast | RPMI-8226 leukemia | NCI/ADR-RES ovarian | 786-0 renal | T-47D breast | COLO 205 colon | SK-OV-3 ovarian

Cc1n[n+](CC(=O)c2ccccc2)c2sc(N)nn12
> 100 µM: DU-145 prostate | SNB-19 CNS | MCF7 breast | HOP-62 NSCLC | IGROV1 ovarian | OVCAR-8 ovarian | MDA-N | SF-268 CNS | SK-MEL-5 melanoma | MOLT-4 leukemia | CAKI-1 renal | HCT-116 colon | CCRF-CEM leukemia | SW-620 colon | PC-3 prostate | NCI-H460 lung | SK-MEL-2 melanoma | U251 CNS | MALME-3M melanoma | NCI-H522 lung | OVCAR-4 ovarian | M14 melanoma | UACC-62 melanoma | SF-295 CNS | A498 renal | UO-31 renal | ACHN renal | K-562 leukemia | MDA-MB-435 | EKVX NSCLC | SK-MEL-28 melanoma | LOX IMVI melanoma | TK-10 renal | SNB-75 CNS | NCI-H226 lung | RXF 393 renal | KM12 colon | NCI-H23 lung | BT-549 breast | UACC-257 melanoma | OVCAR-5 ovarian | OVCAR-3 ovarian | HT29 colon | HCT-15 colon | SN12C renal | A549 NSCLC | HS 578T breast | MDA-MB-231 breast | RPMI-8226 leukemia | NCI/ADR-RES ovarian | 786-0 renal | T-47D breast | COLO 205 colon | SK-OV-3 ovarian

Cc1c(C#N)c(N)[nH]c(=S)c1C#N
> 100 µM: SR leukemia | DU-145 prostate | SF-539 CNS | SNB-19 CNS | MCF7 breast | HOP-62 NSCLC | IGROV1 ovarian | OVCAR-8 ovarian | MDA-N | SF-268 CNS | SK-MEL-5 melanoma | MOLT-4 leukemia | HCC-2998 colon | CAKI-1 renal | HCT-116 colon | CCRF-CEM leukemia | SW-620 colon | PC-3 prostate | NCI-H460 lung | SK-MEL-2 melanoma | U251 CNS | MALME-3M melanoma | NCI-H522 lung | UACC-62 melanoma | SF-295 CNS | A498 renal | UO-31 renal | ACHN renal | K-562 leukemia | EKVX NSCLC | SK-MEL-28 melanoma | LOX IMVI melanoma | TK-10 renal | SNB-75 CNS | NCI-H226 lung | RXF 393 renal | KM12 colon | NCI-H23 lung | BT-549 breast | UACC-257 melanoma | OVCAR-5 ovarian | OVCAR-3 ovarian | HT29 colon | HCT-15 colon | SN12C renal | HL-60(TB) leukemia | A549 NSCLC | HS 578T breast | MDA-MB-231 breast | RPMI-8226 leukemia | 786-0 renal | T-47D breast

CCOC(=O)C(NC(=O)C(CCCCNP(=O)(OCC)OCC)NC(=O)C(C)NC(C)=O)C(C)C (stereo not given)
> 100 µM: SR leukemia | DU-145 prostate | SF-539 CNS | SNB-19 CNS | MCF7 breast | HOP-62 NSCLC | IGROV1 ovarian | OVCAR-8 ovarian | MDA-N | SF-268 CNS | SK-MEL-5 melanoma | MOLT-4 leukemia | HCC-2998 colon | CAKI-1 renal | HCT-116 colon | HOP-92 NSCLC | CCRF-CEM leukemia | SW-620 colon | PC-3 prostate | NCI-H460 lung | SK-MEL-2 melanoma | U251 CNS | MALME-3M melanoma | OVCAR-4 ovarian | M14 melanoma | SF-295 CNS | A498 renal | UO-31 renal | ACHN renal | K-562 leukemia | MDA-MB-435 | EKVX NSCLC | SK-MEL-28 melanoma | LOX IMVI melanoma | TK-10 renal | SNB-75 CNS | NCI-H226 lung | RXF 393 renal | KM12 colon | NCI-H23 lung | BT-549 breast | UACC-257 melanoma | OVCAR-5 ovarian | OVCAR-3 ovarian | HT29 colon | HCT-15 colon | SN12C renal | HL-60(TB) leukemia | A549 NSCLC | MDA-MB-231 breast | RPMI-8226 leukemia | NCI/ADR-RES ovarian | 786-0 renal | COLO 205 colon
